“Also recorded” adds a separate entry of the source.
Assays:
[1] = Room temperature competition test between crystalline forms (ethyl acetate suspension, XRD); assay type: physicochemical; conditions: for Relative stability under room temperature (competition test): ethyl acetate suspension
Protocol: (1) Competition experiment between the crystalline form I and the crystalline form II
Equivalent amounts of the crystalline form I and the crystalline form II samples were mixed well, added with 0.8 ml ethyl acetate to form a suspension, stirred overnight and detected by XRD.
(2) Competition experiment between the crystalline form II and the crystalline form III
Equivalent amounts of the crystalline form II and the crystalline form III samples were mixed well, added with 0.2 ml ethyl acetate to form a suspension, which was stirred overnight to obtain the crystalline form II determined by XRD detection.
(3) Competition experiment between crystalline form I and crystalline form III
Equivalent amounts of the crystalline form I and the crystalline form III samples were mixed uniformly, added with 0.2 ml ethyl acetate to form a suspension, which was stirred overnight, to obtain the crystalline form I determined by XRD detection.

[2] = Comparative experiment of stability between crystalline form III and IV (drying overnight at room temperature, XRD); assay type: physicochemical
From the text: (4) Comparative experiment of stability between the crystalline form III and the crystalline form IV
The Crystalline form III and the crystalline form IV samples were respectively dried overnight at room temperature.

[3] = Comparative stability test (total impurity content); assay type: physicochemical; conditions: 25° C., 60% relative humidity; for total impurity content % at 0 months / total impurity content % at 1 month / total impurity content % at 2 months / total impurity content % at 3 months / total impurity content % at 6 months: packed
Protocol: The stability of an amorphous form, a mixture of the crystalline forms I and the crystal II, the crystalline form II and the crystal form III of the compound of formula (A) were investigated. Specifically, the amorphous form, the mixture of the crystalline form I and the crystalline form II (weight ratio 1:2), the crystalline form II and the crystalline form III were taken 200 mg respectively to be investigated as follows:
Packing: Polyvinyl chloride (PVC) material ziplock bag (the inner layer) was vacuumized, aluminum foil (the middle layer) was vacuumized, and aluminum foil desiccant (the outer layer) was vacuum and filled in with nitrogen;
Inspection conditions: 25° C., 60% relative humidity. The indicator was the total impurity content, which is determined by detection of samples three times at each time point with the average value recorded. The time points for sampling include 0, 1, 2, 3 and 6 months after packing.

[4] = tested on: spontaneously hypertensive rats; assay: Antihypertensive efficacy test in spontaneously hypertensive rats (systolic blood pressure and heart rate by implanted sensor); assay type: in vivo; conditions: SHR; for Systolic blood pressure compared with the control group: after 3 hours of administration; for Systolic blood pressure change, 1 hour after administration / Systolic blood pressure change, 3 hours after administration / Systolic blood pressure change, 5 hours after administration / Systolic blood pressure change, 7 hours after administration / Systolic blood pressure change, 10 hours after administration / Systolic blood pressure change, 24 hours after administration / Systolic blood pressure change, before administration: intragastric; for Systolic blood pressure change, 1 hour after administration / Systolic blood pressure change, 3 hours after administration / Systolic blood pressure change, 5 hours after administration / Systolic blood pressure change, 7 hours after administration / Systolic blood pressure change, 10 hours after administration / Systolic blood pressure change, 24 hours after administration / Heart rates change, 1 hour after administration / Heart rates change, 3 hours after administration / Heart rates change, 5 hours after administration / Heart rates change, 7 hours after administration / Heart rates change, 10 hours after administration / Heart rates change, 24 hours after administration: change vs before administration; for Systolic blood pressure change, 1 hour after administration / Systolic blood pressure change, 3 hours after administration / Systolic blood pressure change, 5 hours after administration / Systolic blood pressure change, 7 hours after administration / Systolic blood pressure change, 10 hours after administration / Systolic blood pressure change, 24 hours after administration / Systolic blood pressure change, before administration / Heart rates change, 1 hour after administration / Heart rates change, 3 hours after administration / Heart rates change, 5 hours after administration / Heart rates change, 7 hours after administration / Heart rates change, 10 hours after administration / Heart rates change, 24 hours after administration / Heart rates change, before administration: average ± standard error; for Systolic blood pressure change, before administration / Heart rates change, before administration: reference value; for Heart rates change, 1 hour after administration / Heart rates change, 3 hours after administration / Heart rates change, 5 hours after administration / Heart rates change, 7 hours after administration / Heart rates change, 10 hours after administration / Heart rates change, 24 hours after administration / Heart rates change, before administration: oral
Protocol: 12-week-old spontaneously hypertensive rats (hereinafter referred to as SHR, purchased from Beijing Weitong Lihua Experimental Animal Technology Co., Ltd.) were anesthetized with 2.5% sodium pentobarbital for intraperitoneal injection. After that, the blood pressure sensing catheter of hypertension implant was inserted into their abdominal aorta, while the implant was fixed to the abdominal wall, and then postoperative daily care is performed after suturing.
Rats with systolic blood pressure exceeding 160 mm Hg were divided into 3 groups (control group, compound (A) group and compound (B) group), wherein each group has 8 rats. The control group was administrated 0.5% sodium carboxymethylcellulose (hereinafter referred to as CMC-Na); the compound (B) group and the compound (A) group were respectively administered the compound (B) and the compound (A), both of which were dissolved by 0.5% CMC-Na, by intragastric administration, at a dose of 1 mg/kg (calculated by the effective dose of valsartan) and a volume calculated by 4 mL/kg.
The systolic blood pressure and heart rate of SHR were compared before and after administration (the systolic blood pressure and heart rate of SHR before administration as reference value), which were detected three times at each time point with the average value recorded.

[5] = Influences of high temperature and high humidity on the crystalline form II (XRD); assay type: physicochemical; conditions: XRD vs crude sample
Protocol: Two samples of 20 mg of the crystalline form II were respectively placed at 60° C. (sealed and shielded from light) and 85% relative humidity (exposed in the air at room temperature and shielded from light), detected by XRD after 10 days and compared with the XRD of the crude sample.

[6] = Effect of tabletting processes on the crystalline form II (XRD); assay type: physicochemical; conditions: 50 mg, single punching machine, XRD vs crude sample
Protocol: Tabletting method: 50 mg of the crystalline form II was tableted under 20 kg and 25 kg pressure tabletting by a single punching machine.
The XRD of the obtained sample powder was compared with the XRD of the crude sample, the results are shown in FIG. 8 (from top to bottom: the crude sample, the sample after 25 kg pressure tabletting and the sample after 20 kg pressure tabletting).

[7] = equivalent amounts, 0.2 ml ethyl acetate suspension, stirred overnight, XRD

SMILES: CCOc1nc2cccc(C(=O)OC(C)OC(=O)OCc3nc(C)c(C)nc3C)c2n1Cc1ccc(-c2ccccc2-c2noc(=O)[n-]2)cc1.[K+] (centres unmarked) [crystalline form I]
- Content of the crystalline form I in the obtained product ([1]; equivalent amounts of form I and form II, 0.8 ml ethyl acetate suspension, stirred overnight, XRD): about 5%
- Relative stability under room temperature (competition test) [1]: better than that of the crystalline form III
- Stability at room temperature (drying experiment) [2]: superior to that of the crystalline form IV
- Chemical stability compared with the amorphous form [3]: better than the amorphous form
- total impurity content % at 0 months [3]: 1.11%
- total impurity content % at 1 month [3]: 1.62%
- total impurity content % at 2 months [3]: 2.34%
- total impurity content % at 3 months [3]: 2.49%
- total impurity content % at 6 months [3]: 3.10%

SMILES: CCOc1nc2cccc(C(=O)OC(C)OC(=O)OCc3nc(C)c(C)nc3C)c2n1Cc1ccc(-c2ccccc2-c2noc(=O)[n-]2)cc1.[K+] (centres unmarked) [mixture of crystalline form I and II]
- Chemical stability compared with the amorphous form [3]: better than the amorphous form
- total impurity content % at 0 months [3]: 0.90%
- total impurity content % at 1 month [3]: 1.58%
- total impurity content % at 2 months [3]: 2.20%
- total impurity content % at 3 months [3]: 2.40%
- total impurity content % at 6 months [3]: 3.29%

SMILES: CCOc1nc2cccc(C(=O)OC(C)OC(=O)OCc3nc(C)c(C)nc3C)c2n1Cc1ccc(-c2ccccc2-c2noc(=O)[n-]2)cc1.[K+] (centres unmarked) [crystalline form IV]
- Crystal form transformation on drying at room temperature ([2]; dried at room temperature, XRD): converted to the crystalline form I; also recorded: completely transformed into the crystalline form I
- Stability at room temperature (drying experiment) [2]: poor stability

SMILES: CCOc1nc2cccc(C(=O)OC(C)OC(=O)OCc3nc(C)c(C)nc3C)c2n1Cc1ccc(-c2ccccc2-c2noc(=O)[n-]2)cc1.[K+] (single isomer, unassigned) [Compound (A)]
- Lowering of heart rate compared with the compound (B) group ([4]; 1 mg/kg): more potent with longer-lasting of lowering heart rate
- Antihypertensive effect compared with the compound (B) group ([4]; 1 mg/kg intragastric): more potent with longer-lasting antihypertensive effect
- Systolic blood pressure compared with the control group ([4]; 1 mg/kg): significantly decreased
- Systolic blood pressure change, 1 hour after administration ([4]; 1 mg/kg, 1 mg/kg): −7.0 ± 3.4 mmHg
- Systolic blood pressure change, 3 hours after administration ([4]; 1 mg/kg, 1 mg/kg): −34.3 ± 1.9 mmHg
- Systolic blood pressure change, 5 hours after administration ([4]; 1 mg/kg, 1 mg/kg): −46.5 ± 2.5 mmHg
- Systolic blood pressure change, 7 hours after administration ([4]; 1 mg/kg, 1 mg/kg): −49.4 ± 4.1 mmHg
- Systolic blood pressure change, 10 hours after administration ([4]; 1 mg/kg, 1 mg/kg): −45.3 ± 3.3 mmHg
- Systolic blood pressure change, 24 hours after administration ([4]; 1 mg/kg, 1 mg/kg): −25.9 ± 3.4 mmHg
- Systolic blood pressure change, before administration ([4]; 1 mg/kg): 0.0 ± 0.0 mmHg
- Heart rates change, 1 hour after administration ([4]; 1 mg/kg, 1 mg/kg): −3.6 ± 2.4 times/minute
- Heart rates change, 3 hours after administration ([4]; 1 mg/kg, 1 mg/kg): −5.0 ± 2.5 times/minute
- Heart rates change, 5 hours after administration ([4]; 1 mg/kg, 1 mg/kg): −10.1 ± 3.0 times/minute
- Heart rates change, 7 hours after administration ([4]; 1 mg/kg, 1 mg/kg): −17.5 ± 3.0 times/minute
- Heart rates change, 10 hours after administration ([4]; 1 mg/kg, 1 mg/kg): −25.4 ± 2.4 times/minute
- Heart rates change, 24 hours after administration ([4]; 1 mg/kg, 1 mg/kg): −28.6 ± 8 times/minute
- Heart rates change, before administration ([4]; 1 mg/kg): 0.0 ± 0.0 times/minute

SMILES: CCOc1nc2cccc(C(=O)OC(C)OC(=O)OCc3nc(C)c(C)nc3C)c2n1Cc1ccc(-c2ccccc2-c2noc(=O)[n-]2)cc1.[K+] (single isomer, unassigned) [Compound (B), reference compound]
- Systolic blood pressure compared with the control group ([4]; 1 mg/kg): significantly decreased
- Systolic blood pressure change, 1 hour after administration ([4]; 1 mg/kg, 1 mg/kg): −4.9 ± 4.8 mmHg
- Systolic blood pressure change, 3 hours after administration ([4]; 1 mg/kg, 1 mg/kg): −22.0 ± 3.6 mmHg
- Systolic blood pressure change, 5 hours after administration ([4]; 1 mg/kg, 1 mg/kg): −30.5 ± 3.5 mmHg
- Systolic blood pressure change, 7 hours after administration ([4]; 1 mg/kg, 1 mg/kg): −38.8 ± 2.3 mmHg
- Systolic blood pressure change, 10 hours after administration ([4]; 1 mg/kg, 1 mg/kg): −33.0 ± 1.7 mmHg
- Systolic blood pressure change, 24 hours after administration ([4]; 1 mg/kg, 1 mg/kg): −10.2 ± 2.1 mmHg
- Systolic blood pressure change, before administration ([4]; 1 mg/kg): 0.0 ± 0.0 mmHg
- Heart rates change, 1 hour after administration ([4]; 1 mg/kg, 1 mg/kg): −3.4 ± 2.6 times/minute
- Heart rates change, 3 hours after administration ([4]; 1 mg/kg, 1 mg/kg): −2.33 ± 2.6 times/minute
- Heart rates change, 5 hours after administration ([4]; 1 mg/kg, 1 mg/kg): −6.5 ± 2.8 times/minute
- Heart rates change, 7 hours after administration ([4]; 1 mg/kg, 1 mg/kg): −6.2 ± 3.0 times/minute
- Heart rates change, 10 hours after administration ([4]; 1 mg/kg, 1 mg/kg): −12.3 ± 2.8 times/minute
- Heart rates change, 24 hours after administration ([4]; 1 mg/kg, 1 mg/kg): −6.7 ± 2.6 times/minute
- Heart rates change, before administration ([4]; 1 mg/kg): 0.0 ± 0.0 times/minute

SMILES: CCOc1nc2cccc(C(=O)OC(C)OC(=O)OCc3nc(C)c(C)nc3C)c2n1Cc1ccc(-c2ccccc2-c2noc(=O)[n-]2)cc1.[K+] (centres unmarked) [crystalline form II]
- Relative stability under room temperature (competition test) [1]: better than that of the crystalline form I; also recorded: better than that of the crystalline form III
- Crystal form after 10 days at 85% relative humidity ([5]; exposed in the air at room temperature, shielded from light): remains unchanged
- Crystal form after 10 days at 60° C. ([5]; sealed and shielded from light): remains unchanged
- Crystal form after tabletting, 20 kg pressure [6]: remains unchanged
- Crystal form after tabletting, 25 kg pressure [6]: remains unchanged
- Stability at room temperature (drying experiment) [2]: superior to that of the crystalline form IV
- Chemical stability compared with the amorphous form [3]: better than the amorphous form
- total impurity content % at 0 months [3]: 1.29%
- total impurity content % at 1 month [3]: 1.43%
- total impurity content % at 2 months [3]: 1.59%
- total impurity content % at 3 months [3]: 1.82%
- total impurity content % at 6 months [3]: 1.87%

SMILES: CCOc1nc2cccc(C(=O)OC(C)OC(=O)OCc3nc(C)c(C)nc3C)c2n1Cc1ccc(-c2ccccc2-c2noc(=O)[n-]2)cc1.[K+] (centres unmarked) [crystalline form III]
- Crystal form transformation, competition form I vs form III [1, 7]: completely transformed into the crystalline form I
- Crystal form transformation, competition form II vs form III [1, 7]: completely transformed into the crystalline form II
- Portion converted to the crystalline form I ([2]; dried overnight at room temperature, XRD): no more than 30%
- Stability at room temperature (drying experiment) [2]: superior to that of the crystalline form IV
- Chemical stability compared with the amorphous form [3]: better than the amorphous form
- total impurity content % at 0 months [3]: 1.56%
- total impurity content % at 1 month [3]: 2.55%
- total impurity content % at 2 months [3]: 2.98%
- total impurity content % at 3 months [3]: 3.34%
- total impurity content % at 6 months [3]: 3.76%
